Data taken from patent US9233965B2, “3,4-dihydropyrrolo[1,2-A]pyrazine-2,8(1H)-dicarboxamide derivatives, preparation thereof and therapeutic use thereof for diseases involving casein kinase 1 epsilon and/or casein kinase 1 delta” (SANOFI, priority 2010, dated 2016).

Target: casein kinase 1 epsilon (CK1 epsilon) (Homo sapiens (Human), UniProt P49674)
Assay: Test A: inhibitory activity on CK1 epsilon, casein phosphorylation assay on ATP-33P filter plate
Type: biochemical
Conditions: IC50 values or IC50 ranges (result of several experiments), ATP 10 μM final
Procedure: The capacity of the compounds of the invention to inhibit the phosphorylation of casein by casein kinase 1 epsilon and/or delta may be evaluated according to the procedures described in document US 2005/0 131 012.
Test A: Inhibitory Activity on CK1 Epsilon Measured by Assay on an ATP-^33P Filter Plate
The effect of the compounds on inhibition of the phosphorylation of casein by the enzyme casein kinase 1 epsilon (CK1 epsilon) is measured, using a casein assay via filtration of ATP-^33P in vitro.
Casein kinase 1 epsilon (0.58 mg/ml) is obtained via fermentation and purification processes performed according to methods that are well known to those skilled in the art, or may also be obtained from Invitrogen Corporation™ (human CK1 epsilon).
The compounds are tested at five different concentrations so as to generate IC50 values, i.e. the concentration at which a compound is capable of inhibiting the enzymatic activity by 50%, or alternatively the percentage of inhibition at a concentration of 10 micromolar.
“U”-bottomed Falcon plates are prepared by placing 5 μL of solutions of the compounds according to the invention at concentrations of 10, 1, 0.1, 0.01 or 0.001 μM in different wells. The solutions of the compounds according to the invention at these various concentrations are prepared by diluting in a test buffer (Tris 50 mM pH 7.5, MgCl2 […], DTT 2 mM and EGTA 1 mM) a stock solution in DMSO at a concentration of 10 mM. Next, 5 μL of dephosphorylated casein are added to a final concentration of 0.2 μg/μL, 20 μL of CK1 epsilon to a final concentration of 3 ng/μL, and 20 μL of ATP-^33P to a final concentration of 0.02 μCi/μL mixed with cold ATP (10 μM final—approximately 2×10^6 CPM per well). The final total test volume per well is equal to 50 μL.
The “U”-bottomed Falcon® test plate mentioned above is vortexed, and then incubated at room temperature for 2 hours. After 2 hours the reaction is stopped by adding an ice-cold solution of 65 μL of cold ATP (2 mM) prepared in test buffer.
100 μL of the reaction mixture are then transferred from the “U”-bottomed Falcon® plate into Millipore® MAPH filter plates, preimpregnated with 25 μL of ice-cold 100% TCA.
The Millipore MAPH filter plates are agitated gently and are left to stand at room temperature for at least 30 minutes to precipitate the proteins.
After 30 minutes, the filter plates are sequentially washed and filtered with 2×150 μL of 20% TCA, 2×150 μL of 10% TCA and 2×150 μL of 5% TCA (6 washes in total per plate/900 μL per well).
The plates are left to dry overnight at room temperature. Next, 40 μL of Microscint-20 Packard® scintillation liquid are added per well and the plates are closed in a leaktight manner. The radiation emitted by each well is then measured for 2 minutes in a TopCount NXT Packard® scintillation counter, in which the values of CPM/well are measured.
The percentage inhibition of the capacity of the enzyme to phosphorylate the substrate (casein) is determined for each concentration of test compound. These inhibition data expressed as percentages are used to calculate the IC50 value for each compound compared with the controls.
The kinetic studies determined the KM value for ATP as being 21 μM in this test system.
Table 2 below gives the IC50 values or the IC50 inhibition ranges (result of several experiments) for the phosphorylation of Casein Kinase 1 Epsilon for a number of compounds according to the invention.

Sequence of casein kinase 1 epsilon (CK1 epsilon) (P49674 whole entry): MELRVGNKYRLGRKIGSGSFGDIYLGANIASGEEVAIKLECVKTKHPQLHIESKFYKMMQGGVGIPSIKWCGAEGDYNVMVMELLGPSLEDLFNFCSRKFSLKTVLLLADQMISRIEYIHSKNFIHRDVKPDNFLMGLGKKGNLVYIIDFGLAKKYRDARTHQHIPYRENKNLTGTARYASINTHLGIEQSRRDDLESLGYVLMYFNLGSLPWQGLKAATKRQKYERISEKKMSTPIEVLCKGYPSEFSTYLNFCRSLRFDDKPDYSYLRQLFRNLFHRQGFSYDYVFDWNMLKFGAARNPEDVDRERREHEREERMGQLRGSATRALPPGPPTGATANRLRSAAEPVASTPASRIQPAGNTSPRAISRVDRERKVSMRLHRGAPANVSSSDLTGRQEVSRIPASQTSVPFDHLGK

SMILES | IC50 [nM]
CC(C)(C)NC(=O)N1CCn2cc(-c3ccccc3)c(C(N)=O)c2C1 [Compound 1, N^2-tert-butyl-7-phenyl-3,4-dihydropyrrolo[1,2-a]pyrazine-2,8(1H)-dicarboxamide] | 12 to 35
COc1ccc(-c2c(C(N)=O)c3n(c2C)CCN(C(=O)NC(C)(C)C)C3)cc1 [Compound 4, N^2-tert-butyl-7-(4-methoxyphenyl)-6-methyl-3,4-dihydropyrrolo[1,2-a]pyrazine-2,8(1H)-dicarboxamide] | 1 to 3
Cc1c(-c2ccc(Oc3ccccc3)cc2)c(C(N)=O)c2n1CCN(C(=O)NC(C)(C)C)C2 [Compound 5, N^2-tert-butyl-6-methyl-7-(4-phenoxyphenyl)-3,4-dihydropyrrolo[1,2-a]pyrazine-2,8(1H)-dicarboxamide] | 34 to 78
COc1ccc(-c2c(C(N)=O)c3n(c2C2CC2)CCN(C(=O)NC2CC2)C3)cc1 [Compound 6, N^2-6-di-cyclo-propyl-7-(4-methoxyphenyl)-3,4-dihydropyrrolo[1,2-a]pyrazine-2,8(1H)-dicarboxamide] | 28 to 57
CC(C)NC(=O)N1CCn2c(c(C(N)=O)c(-c3ccccc3)c2C2CC2)C1 [Compound 7, 6-cyclo-propyl-7-phenyl-N^2-(iso-propyl)-3,4-dihydropyrrolo[1,2-a]pyrazine-2,8(1H)-dicarboxamide] | 42
COc1ccc(-c2c(C(N)=O)c3n(c2C2CC2)CCN(C(=O)NC(C)C)C3)cc1 [Compound 8, 6-cyclo-propyl-7-(4-methoxyphenyl)-N^2-(iso-propyl)-3,4-dihydropyrrolo[1,2-a]pyrazine-2,8(1H)-dicarboxamide] | 221 to 273
CC(C)CNC(=O)N1CCn2c(c(C(N)=O)c(-c3ccccc3)c2C2CC2)C1 [Compound 9, 6-cyclo-propyl-7-phenyl-N^2-(iso-butyl)-3,4-dihydropyrrolo[1,2-a]pyrazine-2,8(1H)-dicarboxamide] | 49
Cc1cccc(-c2c(C(N)=O)c3n(c2C2CC2)CCN(C(=O)NC(C)(C)C)C3)c1 [Compound 11, N^2-tert-butyl-6-cyclo-propyl-7-(3-methylphenyl)-3,4-dihydropyrrolo[1,2-a]pyrazine-2,8(1H)-dicarboxamide] | 3 to 6
Cc1ccc(-c2c(C(N)=O)c3n(c2C2CC2)CCN(C(=O)NC(C)(C)C)C3)cc1 [Compound 12, N^2-tert-butyl-6-cyclo-propyl-7-(4-methylphenyl)-3,4-dihydropyrrolo[1,2-a]pyrazine-2,8(1H)-dicarboxamide] | 12
CC(C)c1ccc(-c2c(C(N)=O)c3n(c2C2CC2)CCN(C(=O)NC(C)(C)C)C3)cc1 [Compound 13, N^2-tert-butyl-6-cyclo-propyl-7-[4-(iso-propyl)phenyl]-3,4-dihydropyrrolo[1,2-a]pyrazine-2,8(1H)-dicarboxamide] | 450 to 1000
CC(C)(C)NC(=O)N1CCn2c(c(C(N)=O)c(-c3ccc(C4CCCCC4)cc3)c2C2CC2)C1 [Compound 14, N^2-tert-butyl-7-(4-cyclo-hexylphenyl)-6-cyclo-propyl-3,4-dihydropyrrolo[1,2-a]pyrazine-2,8(1H)-dicarboxamide] | 136 to 1090
CC(C)(C)NC(=O)N1CCn2c(c(C(N)=O)c(-c3ccc(-c4ccccc4)cc3)c2C2CC2)C1 [Compound 15, 7-(biphenyl-4-yl)-N^2-tert-butyl-6-cyclo-propyl-3,4-dihydropyrrolo[1,2-a]pyrazine-2,8(1H)-dicarboxamide] | 2 to 4
CC(C)(C)NC(=O)N1CCn2c(c(C(N)=O)c(-c3cccc(C(F)(F)F)c3)c2C2CC2)C1 [Compound 16, N^2-tert-butyl-6-cyclo-propyl-7-[3-(trifluoromethyl)phenyl]-3,4-dihydropyrrolo[1,2-a]pyrazine-2,8(1H)-dicarboxamide] | 19 to 57

The remaining lines, values ahead:

IC50 [nM] | SMILES
958 | CN(C)C(=O)c1cccc(-c2c(C(N)=O)c3n(c2C2CC2)CCN(C(=O)NC(C)(C)C)C3)c1 [Compound 17, N^2-tert-butyl-6-cyclo-propyl-7-[3-(dimethylcarbamoyl)phenyl]-3,4-dihydropyrrolo[1,2-a]pyrazine-2,8(1H)-dicarboxamide]
963 | CC(C)(C)NC(=O)N1CCn2c(c(C(N)=O)c(-c3ccc(C(=O)NC4CC4)cc3)c2C2CC2)C1 [Compound 18, N^2-tert-butyl-6-cyclo-propyl-7-[4-(cyclo-propylcarbamoyl)phenyl]-3,4-dihydropyrrolo[1,2-a]pyrazine-2,8(1H)-dicarboxamide]
587 | CC(C)(C)NC(=O)N1CCn2c(c(C(N)=O)c(-c3ccc(C(=O)N4CCCC4)cc3)c2C2CC2)C1 [Compound 19, N^2-tert-butyl-6-cyclo-propyl-7-[4-(pyrrolidin-1-ylcarbonyl)phenyl]-3,4-dihydropyrrolo[1,2-a]pyrazine-2,8(1H)-dicarboxamide]
620 | CON(C)C(=O)c1ccc(-c2c(C(N)=O)c3n(c2C2CC2)CCN(C(=O)NC(C)(C)C)C3)cc1 [Compound 20, N^2-tert-butyl-6-cyclo-propyl-7-{4-[methoxy(methyl)carbamoyl]phenyl}-3,4-dihydropyrrolo[1,2-a]pyrazine-2,8(1H)-dicarboxamide]
26 to 46 | CC(C)(C)NC(=O)N1CCn2c(c(C(N)=O)c(-c3cccc(C#N)c3)c2C2CC2)C1 [Compound 21, N^2-tert-butyl-7-(3-cyanophenyl)-6-cyclo-propyl-3,4-dihydropyrrolo[1,2-a]pyrazine-2,8(1H)-dicarboxamide]
25 | CC(C)(C)NC(=O)N1CCn2c(c(C(N)=O)c(-c3ccc(C#N)cc3)c2C2CC2)C1 [Compound 22, N^2-tert-butyl-7-(4-cyanophenyl)-6-cyclo-propyl-3,4-dihydropyrrolo[1,2-a]pyrazine-2,8(1H)-dicarboxamide]
65 | Cc1nnc(-c2ccc(-c3c(C(N)=O)c4n(c3C3CC3)CCN(C(=O)NC(C)(C)C)C4)cc2)o1 [Compound 23, N^2-tert-butyl-6-cyclo-propyl-7-[4-(5-methyl-1,3,4-oxadiazol-2-yl)phenyl]-3,4-dihydropyrrolo[1,2-a]pyrazine-2,8(1H)-dicarboxamide]
84 | CC(C)(C)NC(=O)N1CCn2c(c(C(N)=O)c(-c3ccc(C(F)(F)F)cc3)c2C2CC2)C1 [Compound 24, N^2-tert-butyl-6-cyclo-propyl-7-[4-(trifluoromethyl)phenyl]-3,4-dihydropyrrolo[1,2-a]pyrazine-2,8(1H)-dicarboxamide]
521 | CN(C)S(=O)(=O)Nc1cccc(-c2c(C(N)=O)c3n(c2C2CC2)CCN(C(=O)NC(C)(C)C)C3)c1 [Compound 26, N^2-tert-butyl-6-cyclo-propyl-7-{3-[(dimethylsulfamoyl)amino]phenyl}-3,4-dihydropyrrolo[1,2-a]pyrazine-2,8(1H)-dicarboxamide]
23 | CC(C)(C)NC(=O)N1CCn2c(c(C(N)=O)c(-c3cccc(-n4cccn4)c3)c2C2CC2)C1 [Compound 27, N^2-tert-butyl-6-cyclo-propyl-7-[3-(1H-pyrazol-1-yl)phenyl]-3,4-dihydropyrrolo[1,2-a]pyrazine-2,8(1H)-dicarboxamide]
4 | CN(C)c1ccc(-c2c(C(N)=O)c3n(c2C2CC2)CCN(C(=O)NC(C)(C)C)C3)cc1 [Compound 28, N^2-tert-butyl-6-cyclo-propyl-7-[4-(dimethylamino)phenyl]-3,4-dihydropyrrolo[1,2-a]pyrazine-2,8(1H)-dicarboxamide]
532 | CC(C)(C)NC(=O)N1CCn2c(c(C(N)=O)c(-c3ccc(NS(C)(=O)=O)cc3)c2C2CC2)C1 [Compound 29, N^2-tert-butyl-6-cyclo-propyl-7-{4-[(methylsulfonyl)amino]phenyl}-3,4-dihydropyrrolo[1,2-a]pyrazine-2,8(1H)-dicarboxamide]
331 | CC(C)(C)NC(=O)N1CCn2c(c(C(N)=O)c(-c3ccc(N4CCOCC4)cc3)c2C2CC2)C1 [Compound 30, N^2-tert-butyl-6-cyclo-propyl-7-[4-(morpholin-4-yl)phenyl]-3,4-dihydropyrrolo[1,2-a]pyrazine-2,8(1H)-dicarboxamide]
